# According to patent publication US9782412B2, “Preventive and/or therapeutic agent of immune disease” (TAIHO PHARMACEUTICAL CO., LTD., priority 2015, dated 2017):
# System: A431 cells/TMD8 cells
# Test: Proliferation inhibitory activity against cell lines expressing BTK and EGFR, comparison of selectivity
# Format: cell-based, human
# Settings: cells cultured three days with compound, CELLTITER GLO
# Text: TMD8 cells, which are of a diffuse large B-cell lymphoma cell line expressing BTK, were suspended in RPMI1640 medium (Life Technologies Corp.) containing 10% fetal bovine serum. A431 cells, which are of an EGFR-overexpressing, highly activated human epidermoid carcinoma cell line, were suspended in DMEM, high glucose medium (Life Technologies Corp.) containing 10% fetal bovine serum. The cell suspensions were inoculated into each well of 384-well flat-bottomed microplates, and the cells were cultured for one day at 37° C. in an incubator containing 5% carbon dioxide gas. […] A DMSO solution of the test compounds was diluted with the medium used in the suspension of the each cell, and this was added to each of the wells of the cell culture plates such that the final concentration of DMSO would be 0.2%. The cells were further cultured for three days at 37° C. in an incubator containing 5% carbon dioxide gas. […] Proliferation inhibition ratio (%)=(C−T)/(C−C0)×100
# T: Luminescence intensity of a well in which the test compound was added
# C: Luminescence intensity of a well in which the test compound was not added
# C0: Luminescence intensity of a well measured before the addition of the test compound
# When a comparison is made between the cell proliferation inhibitory activity against A431 cells that depends on the EGFR proliferation signaling and the cell proliferation inhibitory activity against TMD8 cells that depends on the BTK proliferation signaling, the influence of the respective kinases at a cellular level is able to be evaluated. That is, when the “A431 cell proliferation inhibition ratio/TMD8 cell proliferation inhibition ratio” is calculated, it is contemplated that as the value of the ratio is larger, the selectivity to BTK over EGFR in the cells is higher.
row,SMILES,A431 cell proliferation inhibition ratio/TMD8 cell proliferation inhibition ratio
1,"C=CC(=O)N1CCC[C@@H](n2nc(C(=O)Nc3nc4cc(Br)ccc4o3)c3c(N)ncnc32)C1 [Example 2, (R)-1-(1-acryloylpiperidin-3-yl)-4-amino-N-(5-bromobenzo[d]oxazol-2-yl)-1H-pyrazolo[3,4-d]pyrimidine-3-carboxamide]",>1033.6
2,"CCN(C)C/C=C/C(=O)N1CCC[C@@H](n2nc(C(=O)Nc3nc4cc(Cl)ccc4o3)c3c(N)ncnc32)C1 [Example 16, (R,E)-4-amino-N-(5-chlorobenzo[d]oxazol-2-yl)-1-(1-(4-(ethyl(methyl)amino)but-2-enoyl)piperidin-3-yl)-1H-pyrazolo[3,4-d]pyrimidine-3-carboxamide]",>16313.2
3,"CCN(CC)C/C=C/C(=O)N1CCC[C@@H](n2nc(C(=O)Nc3nc4cc(Cl)ccc4o3)c3c(N)ncnc32)C1 [Example 17, (R,E)-4-amino-N-(5-chlorobenzo[d]oxazol-2-yl)-1-(1-(4-(diethylamino)but-2-enoyl)piperidin-3-yl)-1H-pyrazolo[3,4-d]pyrimidine-3-carboxamide]",>12345.7
4,"CC(C)N(C)C/C=C/C(=O)N1CCC[C@@H](n2nc(C(=O)Nc3nc4cc(Cl)ccc4o3)c3c(N)ncnc32)C1 [Example 18, (R,E)-4-amino-N-(5-chlorobenzo[d]oxazol-2-yl)-1-(1-(4-(isopropyl(methyl)amino)but-2-enoyl)piperidin-3-yl)-1H-pyrazolo[3,4-d]pyrimidine-3-carboxamide]",>15625.0
5,"Nc1ncnc2c1c(C(=O)Nc1nc3cc(Cl)ccc3o1)nn2[C@@H]1CCCN(C(=O)/C=C/CN2CCCC2)C1 [Example 19, (R,E)-4-amino-N-(5-chlorobenzo[d]oxazol-2-yl)-1-(1-(4-(pyrrolidin-1-yl)but-2-enoyl)piperidin-3-yl)-1H-pyrazolo[3,4-d]pyrimidine-3-carboxamide]",>17825.3
6,"Nc1ncnc2c1c(C(=O)Nc1nc3cc(Cl)ccc3o1)nn2[C@@H]1CCCN(C(=O)/C=C/CN2CCCCC2)C1 [Example 20, (R,E)-4-amino-N-(5-chlorobenzo[d]oxazol-2-yl)-1-(1-(4-(piperidin-1-yl)but-2-enoyl)piperidin-3-yl)-1H-pyrazolo[3,4-d]pyrimidine-3-carboxamide]",>19120.5
7,"C=CC(=O)N1CCC[C@@H](n2nc(C(=O)Nc3nc4cc(C)c(C)cc4o3)c3c(N)ncnc32)C1 [Example 23, (R)-1-(1-acryloylpiperidin-3-yl)-4-amino-N-(5,6-dimethylbenzo[d]oxazol-2-yl)-1H-pyrazolo[3,4-d]pyrimidine-3-carboxamide]",>10680
8,"CN(C)C/C=C/C(=O)N1CC[C@@H](n2nc(C(=O)Nc3nc4cc(Cl)ccc4o3)c3c(N)ncnc32)C1 [Example 32, (R,E)-4-amino-N-(5-chlorobenzo[d]oxazol-2-yl)-1-(1-(4-(dimethylamino)but-2-enoyl)pyrrolidin-3-yl)-1H-pyrazolo[3,4-d]pyrimidine-3-carboxamide]",>11123.5
9,"CCN(CC)C/C=C/C(=O)N1CC[C@@H](n2nc(C(=O)Nc3nc4cc(Cl)ccc4o3)c3c(N)ncnc32)C1 [Example 34, (R,E)-4-amino-N-(5-chlorobenzo[d]oxazol-2-yl)-1-(1-(4-(diethylamino)but-2-enoyl)pyrrolidin-3-yl)-1H-pyrazolo[3,4-d]pyrimidine-3-carboxamide]",>22471.9
10,"CC(C)N(C)C/C=C/C(=O)N1CC[C@@H](n2nc(C(=O)Nc3nc4cc(Cl)ccc4o3)c3c(N)ncnc32)C1 [Example 35, (R,E)-4-amino-N-(5-chlorobenzo[d]oxazol-2-yl)-1-(1-(4-(isopropyl(methyl)amino)but-2-enoyl)pyrrolidin-3-yl)-1H-pyrazolo[3,4-d]pyrimidine-3-carboxamide]",>18691.6
11,"C=CC(=O)N1CC[C@@H](n2nc(C(=O)Nc3nc4cc(C#N)ccc4o3)c3c(N)ncnc32)C1 [Example 39, (R)-1-(1-acryloylpyrrolidin-3-yl)-4-amino-N-(5-cyanobenzo[d]oxazol-2-yl)-1H-pyrazolo[3,4-d]pyrimidine-3-carboxamide]",>3510.0
12,"C=CC(=O)N1CC[C@@H](n2nc(C(=O)Nc3nc4cc(CCOC)ccc4o3)c3c(N)ncnc32)C1 [Example 40, (R)-1-(1-acryloylpyrrolidin-3-yl)-4-amino-N-(5-(2-methoxyethyl)benzo[d]oxazol-2-yl)-1H-pyrazolo[3,4-d]pyrimidine-3-carboxamide]",>3159.6
13,"CN(C)C/C=C/C(=O)N1CC[C@@H](n2cc(C(=O)Nc3nc4cc(Cl)ccc4o3)c3c(N)ncnc32)C1 [Example 49, (R,E)-4-amino-N-(5-chlorobenzo[d]oxazol-2-yl)-7-(1-(4-(dimethylamino)but-2-enoyl)pyrrolidin-3-yl) 7H-pyrrolo[2,3-d]pyrimidine-5-carboxamide]",>3260.5
14,"CCN(C)C/C=C/C(=O)N1CC[C@@H](n2cc(C(=O)Nc3nc4cc(Cl)ccc4o3)c3c(N)ncnc32)C1 [Example 50, (R,E)-4-amino-N-(5-chlorobenzo[d]oxazol-2-yl)-7-(1-(4-(ethyl(methyl)amino)but-2-enoyl)pyrrolidin-3-yl) 7H-pyrrolo[2,3-d]pyrimidine-5-carboxamide]",>2767.8
15,"CCN(CC)C/C=C/C(=O)N1CC[C@@H](n2cc(C(=O)Nc3nc4cc(Cl)ccc4o3)c3c(N)ncnc32)C1 [Example 51, (R,E)-4-amino-N-(5-chlorobenzo[d]oxazol-2-yl)-7-(1-(4-(diethylamino)but-2-enoyl)pyrrolidin-3-yl) 7H-pyrrolo[2,3-d]pyrimidine-5-carboxamide]",>2044.6
16,"CC(C)N(C)C/C=C/C(=O)N1CC[C@@H](n2cc(C(=O)Nc3nc4cc(Cl)ccc4o3)c3c(N)ncnc32)C1 [Example 52, (R,E)-4-amino-N-(5-chlorobenzo[d]oxazol-2-yl)-7-(1-(4-(isopropyl(methyl)amino)but-2-enoyl)pyrrolidin-3-yl) 7H-pyrrolo[2,3-d]pyrimidine-5-carboxamide]",>3617.9
17,"Nc1ncnc2c1c(C(=O)Nc1nc3cc(Cl)ccc3o1)cn2[C@@H]1CCN(C(=O)/C=C/CN2CCCC2)C1 [Example 53, (R,E)-4-amino-N-(5-chlorobenzo[d]oxazol-2-yl)-7-(1-(4-(pyrrolidin-1-yl)but-2-enoyl)pyrrolidin-3-yl) 7H-pyrrolo[2,3-d]pyrimidine-5-carboxamide]",>1535.4
18,"Nc1ncnc2c1c(C(=O)Nc1nc3cc(Cl)ccc3o1)cn2[C@@H]1CCN(C(=O)/C=C/CN2CCCCC2)C1 [Example 54, (R,E)-4-amino-N-(5-chlorobenzo[d]oxazol-2-yl)-7-(1-(4-(piperidin-1-yl)but-2-enoyl)pyrrolidin-3-yl) 7H-pyrrolo[2,3-d]pyrimidine-5-carboxamide]",>2675.9

# Target: T1, recombinant human BTK protein (Homo sapiens, UniProt Q06187)
# T1 construct: purchased Carna Biosciences, Inc
# T1 sequence (Q06187 whole entry): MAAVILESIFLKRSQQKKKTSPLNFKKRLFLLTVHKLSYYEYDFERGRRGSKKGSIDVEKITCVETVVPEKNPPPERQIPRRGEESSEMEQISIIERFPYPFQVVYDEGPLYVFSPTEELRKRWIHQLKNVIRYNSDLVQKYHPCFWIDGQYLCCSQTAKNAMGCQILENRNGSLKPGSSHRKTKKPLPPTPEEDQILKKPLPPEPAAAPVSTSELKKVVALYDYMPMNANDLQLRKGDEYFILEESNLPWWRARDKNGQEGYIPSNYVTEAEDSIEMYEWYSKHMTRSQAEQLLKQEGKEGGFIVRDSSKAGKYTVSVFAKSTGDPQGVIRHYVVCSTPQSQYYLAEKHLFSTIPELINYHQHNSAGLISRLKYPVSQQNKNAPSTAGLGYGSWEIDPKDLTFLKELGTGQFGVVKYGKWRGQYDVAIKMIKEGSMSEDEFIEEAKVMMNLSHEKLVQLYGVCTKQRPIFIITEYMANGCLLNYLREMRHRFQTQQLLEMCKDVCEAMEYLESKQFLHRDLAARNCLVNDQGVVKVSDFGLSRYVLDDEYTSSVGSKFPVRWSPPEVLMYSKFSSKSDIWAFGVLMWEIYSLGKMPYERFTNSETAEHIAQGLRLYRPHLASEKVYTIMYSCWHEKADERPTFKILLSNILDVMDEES
# Test: Measurement of BTK inhibitory activity (in vitro)
# Format: biochemical
# Settings: ATP 45 μM, 40 minutes at 25° C.
# Text: Regarding the setting of the conditions for a method for measuring the inhibitory activity of a compound against BTK kinase activity in vitro, it is described in the consumable reagent supplies price list for LabChip (registered trademark) series of PerkinElmer, Inc. that FL-PEPTIDE 2 corresponds to a substrate peptide for the measurement of BTK kinase activity. Therefore, FL-PEPTIDE 2 was used as a substrate. The purified recombinant human BTK protein used in the test was purchased from Carna Biosciences, Inc.
# Regarding the measurement of the inhibitory activity of the compounds, firstly, the compounds of the present invention were diluted stepwise with DMSO. Subsequently, BTK protein, a substrate peptide (final concentration was 1 μM), magnesium chloride (final concentration was 10 mM), ATP (final concentration was 45 μM), and a DMSO solution of the compounds of the present invention (final concentration of DMSO was 5%) were added to a buffer solution for kinase reaction (20 mM HEPES (pH 7.5), 2 mM dithiotheitol, 0.01% Triton X-100), and after the solution was incubated for 40 minutes at 25° C., a kinase reaction was carried out. The reaction was terminated by adding EDTA thereto so as to obtain a final concentration of 30 mM. Finally, a substrate peptide that was not phosphorylated (S) and a phosphorylated peptide (P) were separated and detected by microchannel capillary electrophoresis with a LabChip EZ Reader II (PerkinElmer, Inc.).
row,SMILES,IC50
1,"C=CC(=O)N1CCC[C@@H](n2nc(C(=O)Nc3nc4cc(OC)ccc4o3)c3c(N)ncnc32)C1 [Example 7, (R)-1-(1-acryloylpiperidin-3-yl)-4-amino-N-(5-methoxybenzo[d]oxazol-2-yl)-1H-pyrazolo[3,4-d]pyrimidine-3-carboxamide]",0.457 nM
2,CC#CC(=O)N1CCC[C@@H](n2nc(C(=O)Nc3nc4ccccc4o3)c3c(N)ncnc32)C1 [Example 22],14.2 nM
3,"C=CC(=O)N1CC[C@@H](n2nc(C(=O)Nc3nc4ccccc4o3)c3c(N)ncnc32)C1 [Example 27, (R)-1-(1-acryloylpyrrolidin-3-yl)-4-amino-N-(benzo[d]oxazol-2-yl)-1H-pyrazolo[3,4-d]pyrimidine-3-carboxamide]",1.43 nM
